Legend:
[1] = system: MM.1S cells (myeloma cells); test: Cell proliferation assay (MTS), MM.1S myeloma cells; type: cell-based; settings: Homo sapiens, MM1.S, 72 hours, read-out: IC50 values of MMIS Inhibition
Protocol: MM.1S cells (myeloma cells) (ATCC, catalog number CRL-2974) were seeded at 1.8×10^3 per well to a 96-well culture plate containing […] (Gibco, catalog number A10491-01), and were incubated in an incubator for 24 hours at 37° C. under 5% CO2. Compounds were prepared as 20 mM stock solutions with DMSO (Sigma, catalog number D2650), and were diluted with the medium to the desired concentration (the final concentration of DMSO was 0.5%) and then were added to each well, incubated in an incubator for 72 hours at 37° C. under 5% CO2. Then, 20 μL MTS (Promega, catalog number G3581) was added to each well, and further incubated for 1-4 hours in an incubator at 37° C. under 5% CO2. OD490 nm was detected with OD650 nm as reference. The control, a solution containing 0.5% DMSO medium, was as 0% inhibition. GraphPad Prism 5 was used, slope was allowed to change to make the dose-effect curve and IC50 values were calculated, shown in table 2 for details.

TNF-α = TNF-α activity inhibiting assay (LPS-stimulated peripheral blood, ELISA); type: cell-based, human; settings: Homo sapiens, compound 100 nM, diluted peripheral blood of healthy volunteers, LPS 10 ng/mL, 6 hours, read-out: Inhibitory Rate on TNF-α (%)
Protocol: TNF-α Activity Inhibiting Assay
Peripheral blood from healthy volunteers was collected and collected with EDTA anticoagulant tubes. After being diluted 5-fold with 1640 medium (Gibco, catalog number 11875-093, USA), the blood was added to 96-well cell culture plates (Costar, catalog number 3599, USA) and then treated with 10 μL solution of the compound of general formula (I) of the present invention in DMSO (Sigma, catalog number D2650, USA). The final concentration of the compound was 100 nM, and the final concentration of DMSO was 0.2%. After incubation for 60 minutes in an incubator at 37° C. under 5% CO2, 10 μL LPS (Sigma, catalog number L-2880, USA) was added to the reaction system, and the final concentration was 10 ng/mL. After further culturing for 6 hours in the incubator at 37° C. under 5% CO2, the supernatant was collected. The content of TNF-α was determined by ELISA (BD Biosciences, catalog number 555212, USA). Absorbance was detected at OD450 nm with a microplate reader, with OD 650 nm as reference. The control, a solution containing 0.2% DMSO medium, was as 0% inhibition. Raw data and standard curves were recorded. The four-parameter drug inhibition curve was plotted by XL-fit software and the inhibition rate of each compound was calculated, as shown in Table 1.

SMILES	IC50 [1]	inhibition at 0.1 µM (TNF-α)
COCCOc1ccc(F)c(CNc2cccc3c2CN(C2CCC(=O)NC2=O)C3=O)c1 (centres unmarked) [Compound A370, 3-(4-((2-fluoro-5-(2-methoxyethoxy)benzyl)amino)-1-oxoisoindolin-2-yl)piperidine-2,6-dione]	≥ 300 nM	< 50%
[2H][C@]1(N2Cc3c(NCc4ccc(CN5CCOCC5)cc4)cccc3C2=O)CCC(=O)NC1=O [Compound A373, (S)-3-deuterium-3-(4-((4-(morpholinomethyl)benzyl)amino)-1-oxoisoindolin-2-yl)piperidine-2,6-dione]	< 300 nM	≥ 50%
CNc1cccc(CNc2cccc3c2CN(C2CCC(=O)NC2=O)C3=O)c1F (centres unmarked) [Compound A372, 3-(4-((2-fluoro-3-(methylamino)benzyl)amino)-1-oxoisoindolin-2-yl)piperidine-2,6-dione]	< 300 nM	≥ 50%
O=C1CCC(N2Cc3c(NCc4cc(OCCOC(=O)N5CCCC5)ccc4F)cccc3C2=O)C(=O)N1 (centres unmarked) [Compound A374, 2-(3-(((2-(2,6-dioxopiperidin-3-yl)-1-oxoisoindolin-4-yl)amino)methyl)-4-fluorophenoxy)ethyl pyrrolidine-1-carboxylate]	< 300 nM	≥ 50%
COc1cccc(CNc2cc(F)cc3c2CN(C2CCC(=O)NC2=O)C3=O)c1F (centres unmarked) [Compound A318, 3-(6-fluoro-4-((2-fluoro-3-methoxybenzyl)amino)-1-oxoisoindolin-2-yl)-piperidine-2,6-dione]	≥ 300 nM	< 50%
NS(=O)(=O)c1cccc(CNc2cccc3c2CN(C2CCC(=O)NC2=O)C3=O)c1F (centres unmarked) [Compound A389, 3-(((2-(2,6-dioxopiperidin-3-yl)-1-oxoisoindolin-4-yl)amino)methyl)-2-fluorobenzenesulfonamide]	< 300 nM	< 50%
CC(=O)Nc1cccc(CNc2cccc3c2CN(C2CCC(=O)NC2=O)C3=O)c1F (centres unmarked) [Compound A388, N-(3-(((2-(2,6-dioxopiperidin-3-yl)-1-oxoisoindolin-4-yl)amino)methyl)-2-fluorophenyl)acetamide]	< 300 nM	≥ 50%
O=C1CCC(N2Cc3c(NCc4cccc(O)c4F)cccc3C2=O)C(=O)N1 (centres unmarked) [Compound A359, 3-(4-((2-fluoro-3-hydroxybenzyl)amino)-1-oxoisoindolin-2-yl)piperidine-2,6-dione]	< 300 nM	≥ 50%
[2H]C1(N2Cc3c(N)cc(F)cc3C2=O)CCC(=O)NC1=O (racemic) [Compound I-01]	–	> 50%

Now from value to molecule, other results behind:

IC50 [1]	SMILES	inhibition at 0.1 µM (TNF-α)
< 300 nM	[2H][C@]1(N2Cc3c(OCc4cc(OC)ccc4F)cccc3C2=O)CCC(=O)NC1=O [Compound A379, (S)-3-deuterium-3-(4-((2-fluoro-5-methoxybenzyl)oxy)-1-oxoisoindolin-2-yl)piperidine-2,6-dione]	< 50%
≥ 300 nM	O=C1CCC(N2Cc3c(NCc4ccc(O)cc4F)cccc3C2=O)C(=O)N1 (centres unmarked) [Compound A396, 3-(4-((2-fluoro-4-hydroxybenzyl)amino)-1-oxoisoindolin-2-yl)piperidine-2,6-dione]	< 50%
< 300 nM	COc1ccc(F)c(CNc2cccc3c2CN([C@H]2CCC(=O)NC2=O)C3=O)c1 [Compound A340, (S)-3-(4-((2-fluoro-5-methoxybenzyl)amino)-1-oxoisoindolin-2-yl)piperidine-2,6-dione]	< 50%
< 300 nM	[2H][C@@]1(N2Cc3c(OCc4ccc(OC)cc4F)cccc3C2=O)CCC(=O)NC1=O [Compound A392, (R)-3-deuterium-3-(4-((2-fluoro-4-methoxybenzyl)oxy)-1-oxoisoindolin-2-yl)piperidine-2,6-dione]	≥ 50%
< 300 nM	O=C1CCC(N2Cc3c(OCc4ccccc4F)cccc3C2=O)C(=O)N1 (centres unmarked) [Compound A336, 3-[4-(2-Fluoro-benzyloxy)-1-oxo-1,3-dihydro-isoindol-2-yl]-piperidine-2,6-dione]	–

— US10017492B2 (KANGPU BIOPHARMACEUTICALS, LTD., priority 2014, dated 2018)
